Blank lines part the entries; values can stand above or below the molecule they belong to. The source made the active and inactive calls.
Assays:
[1] = molecular target: T1, Sphingosine 1-phosphate receptor 4 (Homo sapiens, UniProt O95977); test: S1P4 receptor antagonists, human, late-stage follow-up, cell-based, fluorescence, synthesized analogues (AID 2346); assay type: functional
T1 sequence (O95977 whole entry): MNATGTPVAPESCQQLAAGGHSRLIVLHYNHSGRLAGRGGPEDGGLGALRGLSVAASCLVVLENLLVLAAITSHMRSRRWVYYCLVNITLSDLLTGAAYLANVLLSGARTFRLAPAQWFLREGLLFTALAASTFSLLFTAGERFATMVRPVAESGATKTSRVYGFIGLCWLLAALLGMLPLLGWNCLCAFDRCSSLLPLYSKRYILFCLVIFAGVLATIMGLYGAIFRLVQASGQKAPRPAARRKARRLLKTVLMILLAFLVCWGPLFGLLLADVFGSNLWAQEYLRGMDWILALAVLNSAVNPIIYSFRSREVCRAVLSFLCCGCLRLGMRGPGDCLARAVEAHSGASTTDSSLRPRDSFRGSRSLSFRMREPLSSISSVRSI

[2] = molecular target: Sphingosine 1-phosphate receptor 2 (Homo sapiens, UniProt O95136); test: Late stage counterscreen assay for S1P4 antagonists: Fluorescence dose response cell-based screening assay for antagonists of the Sphingosine 1-Phosphate Receptor 2 (S1P2). [Related pubchem assays (depositor defined):AID1510, AID1524, AID1692, AID1853, AID2332, AID489009, AID489017]; assay type: functional
[3] = molecular target: Sphingosine 1-phosphate receptor 5 (Homo sapiens, UniProt Q9H228); test: Late stage counterscreen assay for S1P4 antagonists: Fluorescence dose response cell-based screening assay for antagonists of the Sphingosine 1-Phosphate Receptor 5 (S1P5). [Related pubchem assays (depositor defined):AID1510, AID1524, AID1692, AID1853, AID2332, AID489009, AID489017]; assay type: functional
[4] = molecular target: Sphingosine 1-phosphate receptor 1 (Homo sapiens, UniProt P21453); test: Late stage counterscreen assay for S1P4 antagonists: Fluorescence dose response cell-based screening assay for antagonists of the Sphingosine 1-Phosphate Receptor 1 (S1P1). [Related pubchem assays (depositor defined):AID1510, AID1524, AID1692, AID1853, AID2332, AID489009, AID489017]; assay type: functional
[5] = molecular target: Sphingosine 1-phosphate receptor 3 (Homo sapiens, UniProt Q99500); test: Late stage counterscreen assay for S1P4 antagonists: Fluorescence dose response cell-based screening assay for antagonists of the Sphingosine 1-Phosphate Receptor 3 (S1P3). [Related pubchem assays (depositor defined):AID1510, AID1524, AID1692, AID1853, AID2332, AID489009, AID489017]; assay type: functional
[6] = molecular target: Nucleotide-binding oligomerization domain-containing protein 1 (Homo sapiens, UniProt Q9Y239); test: SAR analysis of compounds that inhibit NOD1 - Set 3. [Related pubchem assays (depositor defined):AID1566, AID1575, AID1578, AID1849, AID1852, AID2333, AID2335, AID2466]; assay type: functional
[7] = molecular target: Nucleotide-binding oligomerization domain-containing protein 2 (Homo sapiens, UniProt Q9HC29); test: NOD2 signaling inhibitors, analog potency, SAR follow-up, cell-based, set 3 (AID 2799); assay type: functional
Tumor necrosis factor = Tumor necrosis factor (Homo sapiens, UniProt P01375); test: TNFa-triggered NF-kB activation inhibitors, SAR follow-up, cell-based, set 3 (AID 2801); assay type: functional
HEK293 = test: SAR analysis of compounds that are cytotoxic to HEK293 - Set 3. [Related pubchem assays (depositor defined):AID1575, AID1578, AID1848, AID1849, AID2001, AID2333, AID2334, AID2335, AID2337, AID2469]; assay type: functional, cell-based; details: Homo sapiens
[8] = molecular target: FAD-linked sulfhydryl oxidase ALR (Homo sapiens, UniProt P55789); test: inhibitors of human ALR sulfhydryl oxidase, dose response, biochemical, H2O2 detection, luminescence, cherry-pick (AID 493248)
[9] = molecular target: Lysine-specific demethylase 4C (Homo sapiens, UniProt Q9H3R0); test: GASC-1 (JMJD2C) histone demethylase inhibitors, dose response, biochemical, DELFIA europium, cherry-picked samples (AID 488835); assay type: functional
[10] = molecular target: T2, Zinc finger protein mex-5 (Caenorhabditis elegans, UniProt Q9XUB2); test: MEX-5/TCR-2 RNA interaction inhibitors, dose response, biochemical, C. elegans, fluorescence polarization (AID 1960)
T2 sequence (Q9XUB2 whole entry): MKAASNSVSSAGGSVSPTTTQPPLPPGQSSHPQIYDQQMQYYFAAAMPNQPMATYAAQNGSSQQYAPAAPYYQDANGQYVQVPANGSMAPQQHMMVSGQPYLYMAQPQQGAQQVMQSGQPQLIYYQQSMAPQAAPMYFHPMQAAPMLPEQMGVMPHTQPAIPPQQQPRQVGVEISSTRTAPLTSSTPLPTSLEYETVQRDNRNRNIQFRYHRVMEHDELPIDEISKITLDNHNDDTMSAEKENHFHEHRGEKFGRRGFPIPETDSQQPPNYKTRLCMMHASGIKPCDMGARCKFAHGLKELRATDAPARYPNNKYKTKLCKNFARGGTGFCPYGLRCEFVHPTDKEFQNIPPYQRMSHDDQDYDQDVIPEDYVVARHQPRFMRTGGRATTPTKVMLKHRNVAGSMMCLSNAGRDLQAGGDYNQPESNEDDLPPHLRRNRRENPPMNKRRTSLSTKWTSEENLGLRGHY

[11] = molecular target: T3, RNA-binding protein pos-1 (Caenorhabditis elegans, UniProt G5EF15); test: inhibitors of POS-1/mex-3 RNA binding, dose response, biochemical, fluorescence polarization (AID 1964);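 further: purified POS-1 fused to maltose binding protein made in E. coli; potency of compounds blocking POS-1 binding to fluorescent RNA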
T3 sequence (G5EF15 whole entry): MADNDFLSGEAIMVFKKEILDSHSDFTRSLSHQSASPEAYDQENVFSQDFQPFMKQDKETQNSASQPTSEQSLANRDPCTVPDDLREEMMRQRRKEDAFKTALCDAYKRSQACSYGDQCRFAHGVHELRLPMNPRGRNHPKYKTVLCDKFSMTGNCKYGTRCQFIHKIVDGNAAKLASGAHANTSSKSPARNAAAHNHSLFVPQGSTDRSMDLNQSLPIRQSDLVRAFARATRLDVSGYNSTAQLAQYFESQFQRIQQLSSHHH

Sphingosine 1-phosphate receptor 3, sequence (Q99500 whole entry, the tested form may be a part): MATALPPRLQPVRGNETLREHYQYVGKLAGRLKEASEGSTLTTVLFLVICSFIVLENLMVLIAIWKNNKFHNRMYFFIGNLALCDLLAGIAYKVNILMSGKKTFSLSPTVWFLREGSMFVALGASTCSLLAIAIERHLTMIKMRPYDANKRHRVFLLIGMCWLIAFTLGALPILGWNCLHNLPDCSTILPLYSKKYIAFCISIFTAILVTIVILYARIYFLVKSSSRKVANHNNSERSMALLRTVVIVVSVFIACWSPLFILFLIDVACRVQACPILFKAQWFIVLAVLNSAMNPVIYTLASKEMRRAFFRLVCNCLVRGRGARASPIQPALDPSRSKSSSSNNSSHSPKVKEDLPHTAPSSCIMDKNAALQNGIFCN
Sphingosine 1-phosphate receptor 5, sequence (Q9H228 whole entry): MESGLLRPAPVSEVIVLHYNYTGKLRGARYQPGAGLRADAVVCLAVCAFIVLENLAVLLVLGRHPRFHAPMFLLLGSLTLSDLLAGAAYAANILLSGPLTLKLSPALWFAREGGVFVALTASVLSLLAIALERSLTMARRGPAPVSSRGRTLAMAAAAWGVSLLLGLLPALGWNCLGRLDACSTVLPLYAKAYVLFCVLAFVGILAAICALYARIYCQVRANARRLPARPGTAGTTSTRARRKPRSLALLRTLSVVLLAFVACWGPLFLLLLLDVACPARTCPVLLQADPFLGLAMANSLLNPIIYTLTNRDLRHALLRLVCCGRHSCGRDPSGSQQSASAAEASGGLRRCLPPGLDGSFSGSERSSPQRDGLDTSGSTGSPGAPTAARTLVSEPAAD
Sphingosine 1-phosphate receptor 1, sequence (P21453 whole entry): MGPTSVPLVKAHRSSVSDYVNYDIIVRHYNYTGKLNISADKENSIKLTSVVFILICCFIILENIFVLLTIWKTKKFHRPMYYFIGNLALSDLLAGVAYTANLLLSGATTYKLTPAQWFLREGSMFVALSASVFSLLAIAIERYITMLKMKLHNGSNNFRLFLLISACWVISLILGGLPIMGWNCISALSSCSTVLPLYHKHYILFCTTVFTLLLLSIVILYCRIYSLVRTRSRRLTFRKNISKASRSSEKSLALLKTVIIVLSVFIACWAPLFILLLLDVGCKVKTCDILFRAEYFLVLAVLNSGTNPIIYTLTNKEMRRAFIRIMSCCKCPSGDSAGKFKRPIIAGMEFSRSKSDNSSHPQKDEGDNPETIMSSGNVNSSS
Sphingosine 1-phosphate receptor 2, sequence (O95136 whole entry): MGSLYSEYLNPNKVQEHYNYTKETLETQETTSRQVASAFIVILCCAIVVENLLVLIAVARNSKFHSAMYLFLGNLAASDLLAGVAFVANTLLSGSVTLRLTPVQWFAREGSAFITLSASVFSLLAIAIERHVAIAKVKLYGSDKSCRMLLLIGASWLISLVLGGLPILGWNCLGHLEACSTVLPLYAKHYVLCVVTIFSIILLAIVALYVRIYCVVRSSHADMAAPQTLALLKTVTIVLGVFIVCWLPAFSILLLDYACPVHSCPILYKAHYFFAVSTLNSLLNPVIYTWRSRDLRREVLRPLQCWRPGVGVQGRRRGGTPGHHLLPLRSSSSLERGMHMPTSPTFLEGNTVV
Nucleotide-binding oligomerization domain-containing protein 1, sequence (Q9Y239 whole entry, the tested form may be a part): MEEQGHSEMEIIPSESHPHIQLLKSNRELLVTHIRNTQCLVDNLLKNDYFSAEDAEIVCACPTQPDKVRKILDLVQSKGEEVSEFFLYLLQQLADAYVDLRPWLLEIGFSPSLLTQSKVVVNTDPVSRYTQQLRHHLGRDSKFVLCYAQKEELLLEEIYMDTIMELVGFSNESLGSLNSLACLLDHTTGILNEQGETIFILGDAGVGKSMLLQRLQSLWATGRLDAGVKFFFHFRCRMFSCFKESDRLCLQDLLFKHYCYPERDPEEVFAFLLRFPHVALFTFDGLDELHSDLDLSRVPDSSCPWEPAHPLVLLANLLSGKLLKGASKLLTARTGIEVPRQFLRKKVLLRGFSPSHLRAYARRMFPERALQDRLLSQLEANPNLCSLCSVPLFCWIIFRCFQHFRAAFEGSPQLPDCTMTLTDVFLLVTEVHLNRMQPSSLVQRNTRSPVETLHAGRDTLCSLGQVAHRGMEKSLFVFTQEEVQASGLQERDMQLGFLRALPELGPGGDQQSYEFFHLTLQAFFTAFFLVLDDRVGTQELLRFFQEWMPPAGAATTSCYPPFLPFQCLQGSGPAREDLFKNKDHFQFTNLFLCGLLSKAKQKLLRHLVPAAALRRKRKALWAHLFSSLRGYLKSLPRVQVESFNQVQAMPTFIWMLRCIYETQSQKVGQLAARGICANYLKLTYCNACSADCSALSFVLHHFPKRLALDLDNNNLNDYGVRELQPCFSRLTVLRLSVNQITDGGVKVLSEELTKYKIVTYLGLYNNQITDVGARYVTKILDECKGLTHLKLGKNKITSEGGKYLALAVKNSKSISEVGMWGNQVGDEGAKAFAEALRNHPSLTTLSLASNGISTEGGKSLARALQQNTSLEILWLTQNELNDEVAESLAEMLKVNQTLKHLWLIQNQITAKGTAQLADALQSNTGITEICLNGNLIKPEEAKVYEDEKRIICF
Lysine-specific demethylase 4C, sequence (Q9H3R0 whole entry): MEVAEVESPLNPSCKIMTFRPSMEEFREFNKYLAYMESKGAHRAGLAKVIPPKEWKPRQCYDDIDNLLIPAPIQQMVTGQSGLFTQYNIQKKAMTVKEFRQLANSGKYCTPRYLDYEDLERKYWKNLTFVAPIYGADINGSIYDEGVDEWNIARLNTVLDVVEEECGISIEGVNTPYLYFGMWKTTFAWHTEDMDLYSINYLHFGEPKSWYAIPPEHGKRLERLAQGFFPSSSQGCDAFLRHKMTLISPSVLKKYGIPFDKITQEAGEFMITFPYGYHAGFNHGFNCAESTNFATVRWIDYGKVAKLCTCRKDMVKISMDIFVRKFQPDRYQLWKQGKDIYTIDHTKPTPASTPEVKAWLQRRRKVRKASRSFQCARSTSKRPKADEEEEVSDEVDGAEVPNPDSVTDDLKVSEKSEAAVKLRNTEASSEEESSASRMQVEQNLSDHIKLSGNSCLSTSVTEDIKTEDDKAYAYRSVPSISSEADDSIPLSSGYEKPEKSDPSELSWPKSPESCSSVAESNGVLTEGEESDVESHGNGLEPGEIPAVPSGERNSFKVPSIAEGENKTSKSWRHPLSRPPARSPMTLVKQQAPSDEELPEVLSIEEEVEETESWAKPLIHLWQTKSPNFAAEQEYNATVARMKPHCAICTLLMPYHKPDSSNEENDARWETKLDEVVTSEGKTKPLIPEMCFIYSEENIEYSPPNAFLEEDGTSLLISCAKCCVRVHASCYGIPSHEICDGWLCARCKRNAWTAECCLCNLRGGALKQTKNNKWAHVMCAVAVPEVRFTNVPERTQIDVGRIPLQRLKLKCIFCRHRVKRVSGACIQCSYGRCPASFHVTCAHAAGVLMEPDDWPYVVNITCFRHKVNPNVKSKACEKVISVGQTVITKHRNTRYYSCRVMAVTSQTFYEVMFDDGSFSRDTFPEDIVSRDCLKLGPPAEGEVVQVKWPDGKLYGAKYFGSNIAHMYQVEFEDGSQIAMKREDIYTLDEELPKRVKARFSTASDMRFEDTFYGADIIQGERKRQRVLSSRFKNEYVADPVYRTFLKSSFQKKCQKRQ
Tumor necrosis factor, sequence (P01375 whole entry): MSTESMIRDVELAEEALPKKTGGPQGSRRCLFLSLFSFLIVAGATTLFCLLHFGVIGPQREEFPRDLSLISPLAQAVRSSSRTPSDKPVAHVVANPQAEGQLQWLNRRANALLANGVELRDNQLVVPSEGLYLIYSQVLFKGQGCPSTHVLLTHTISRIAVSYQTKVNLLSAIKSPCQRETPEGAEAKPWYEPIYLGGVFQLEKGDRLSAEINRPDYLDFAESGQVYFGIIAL
FAD-linked sulfhydryl oxidase ALR, sequence (P55789 whole entry): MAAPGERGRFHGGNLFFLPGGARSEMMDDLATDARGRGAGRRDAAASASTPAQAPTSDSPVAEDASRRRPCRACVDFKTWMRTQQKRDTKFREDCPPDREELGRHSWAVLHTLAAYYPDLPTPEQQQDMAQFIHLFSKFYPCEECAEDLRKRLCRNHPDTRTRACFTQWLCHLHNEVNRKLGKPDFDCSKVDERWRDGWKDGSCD
Nucleotide-binding oligomerization domain-containing protein 2, sequence (Q9HC29 whole entry, the tested form may be a part): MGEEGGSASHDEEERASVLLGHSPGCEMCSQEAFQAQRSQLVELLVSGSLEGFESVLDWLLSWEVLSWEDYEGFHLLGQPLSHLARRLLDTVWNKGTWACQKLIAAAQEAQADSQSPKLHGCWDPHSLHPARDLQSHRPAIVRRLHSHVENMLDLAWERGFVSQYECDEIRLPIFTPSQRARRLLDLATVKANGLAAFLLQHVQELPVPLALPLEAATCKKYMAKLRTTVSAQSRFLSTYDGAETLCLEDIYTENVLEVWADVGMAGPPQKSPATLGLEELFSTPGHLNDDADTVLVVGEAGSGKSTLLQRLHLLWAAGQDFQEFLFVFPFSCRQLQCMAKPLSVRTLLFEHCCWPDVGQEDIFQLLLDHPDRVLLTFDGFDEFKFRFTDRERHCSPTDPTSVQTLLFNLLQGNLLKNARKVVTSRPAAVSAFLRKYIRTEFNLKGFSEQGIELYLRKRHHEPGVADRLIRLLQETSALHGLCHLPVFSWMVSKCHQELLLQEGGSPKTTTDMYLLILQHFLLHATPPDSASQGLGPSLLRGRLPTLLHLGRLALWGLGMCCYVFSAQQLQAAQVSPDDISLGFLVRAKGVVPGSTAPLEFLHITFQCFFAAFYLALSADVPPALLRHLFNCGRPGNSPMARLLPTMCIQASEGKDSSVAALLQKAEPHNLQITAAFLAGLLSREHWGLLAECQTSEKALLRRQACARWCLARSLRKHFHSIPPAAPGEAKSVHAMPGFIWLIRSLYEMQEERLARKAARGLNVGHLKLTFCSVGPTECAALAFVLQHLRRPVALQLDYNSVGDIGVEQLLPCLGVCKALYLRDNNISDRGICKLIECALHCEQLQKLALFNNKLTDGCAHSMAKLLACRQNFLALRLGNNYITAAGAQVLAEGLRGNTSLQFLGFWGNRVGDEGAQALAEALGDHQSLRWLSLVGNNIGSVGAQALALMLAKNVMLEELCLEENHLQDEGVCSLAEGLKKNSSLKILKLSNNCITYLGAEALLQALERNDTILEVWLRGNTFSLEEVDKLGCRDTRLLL

IC50 [1]: 0.393 µM (active)
IC50 [2]: > 25 µM (inactive)
IC50 [3]: > 25 µM (inactive)
IC50 [4]: > 25 µM (inactive)
IC50 [5]: > 25 µM (inactive)
SMILES: Cc1ccccc1NC(=O)c1ccc(-c2cc(Cl)ccc2Cl)o1

SMILES: N#Cc1ccc(S(=O)(=O)n2c(N)nc3ccccc32)cc1
IC50 [6]: > 20 µM (inactive)
IC50 [7]: > 20 µM (inactive)
IC50 (Tumor necrosis factor): > 20 µM (inactive)
IC50 (HEK293): > 20 µM (inactive)

AC50 [8]: 5.38 µM (active)
AC50 [9]: 15.2 µM (active)
EC50 [10]: 24 µM (active)
EC50 [11]: 109 µM (active)
SMILES: Oc1cc2c(cc1O)C(c1ccccc1)CNCC2 (stereo not drawn)

From ChEMBL document CHEMBL1201862, “PubChem BioAssay data set” (2004)
